Measured values from ChEMBL document CHEMBL3044736, “Synthesis, characterization, solvatochromic properties, and antimicrobial evaluation of 5-acetyl-2-thioxo-dihydro-pyrimidine-4,6-dione-based chalcones” (2013).
Converted amounts (≈) assume the structure as drawn.

Experiments:
Type in all cases: functional
Pseudomonas aeruginosa [1] = assay: Antimicrobial activity against Pseudomonas aeruginosa MTCC 1688 assessed as diameter of growth inhibition zone at 100 ug/ml after 18-24 hr by agar cup diffusion method; details: read-out: DIZ
Escherichia coli [2] = assay: Antimicrobial activity against Escherichia coli MTCC 443 assessed as diameter of growth inhibition zone at 250 ug/ml after 18-24 hr by agar cup diffusion method; details: read-out: DIZ
Klebsiella pneumoniae [3] = assay: Antimicrobial activity against Klebsiella pneumoniae MTCC 109 assessed as diameter of growth inhibition zone at 250 ug/ml after 18-24 hr by agar cup diffusion method; details: read-out: DIZ
Aspergillus clavatus [4] = assay: Antimicrobial activity against Aspergillus clavatus MTCC 1323 assessed as diameter of growth inhibition zone at 50 ug/ml after 48-96 hr by agar cup diffusion method; details: read-out: DIZ
Candida albicans [5] = assay: Antimicrobial activity against Candida albicans MTCC 227 assessed as diameter of growth inhibition zone at 100 ug/ml after 48-96 hr by agar cup diffusion method; details: read-out: DIZ
Streptococcus pyogenes [6] = assay: Antimicrobial activity against Streptococcus pyogenes MTCC 442 assessed as diameter of growth inhibition zone at 100 ug/ml after 18-24 hr by agar cup diffusion method; details: read-out: DIZ
Streptococcus pyogenes [7] = assay: Antimicrobial activity against Streptococcus pyogenes MTCC 442 assessed as diameter of growth inhibition zone at 250 ug/ml after 18-24 hr by agar cup diffusion method; details: read-out: DIZ
Staphylococcus aureus [8] = assay: Antimicrobial activity against Staphylococcus aureus MTCC 96 assessed as diameter of growth inhibition zone at 250 ug/ml after 18-24 hr by agar cup diffusion method; details: read-out: DIZ
Penicillium [9] = assay: Antimicrobial activity against Penicillium wild strain assessed as diameter of growth inhibition zone at 100 ug/ml after 48-96 hr by agar cup diffusion method; details: read-out: DIZ
Trichophyton rubrum [10] = assay: Antimicrobial activity against Trichophyton rubrum MTCC 296 assessed as diameter of growth inhibition zone at 250 ug/ml after 48-96 hr by agar cup diffusion method; details: read-out: DIZ
Penicillium [11] = assay: Antimicrobial activity against Penicillium wild strain assessed as diameter of growth inhibition zone at 250 ug/ml after 48-96 hr by agar cup diffusion method; details: read-out: DIZ
Trichophyton rubrum [12] = assay: Antimicrobial activity against Trichophyton rubrum MTCC 296 by agar cup diffusion method
Klebsiella pneumoniae [13] = assay: Antimicrobial activity against Klebsiella pneumoniae MTCC 109 assessed as diameter of growth inhibition zone at 100 ug/ml after 18-24 hr by agar cup diffusion method; details: read-out: DIZ
Candida albicans [14] = assay: Antimicrobial activity against Candida albicans MTCC 227 assessed as diameter of growth inhibition zone at 50 ug/ml after 48-96 hr by agar cup diffusion method; details: read-out: DIZ
Penicillium [15] = assay: Antimicrobial activity against Penicillium wild strain by agar cup diffusion method
Aspergillus clavatus [16] = assay: Antimicrobial activity against Aspergillus clavatus MTCC 1323 assessed as diameter of growth inhibition zone at 100 ug/ml after 48-96 hr by agar cup diffusion method; details: read-out: DIZ
Pseudomonas aeruginosa [17] = assay: Antimicrobial activity against Pseudomonas aeruginosa MTCC 1688 by agar cup diffusion method
Streptococcus pyogenes [18] = assay: Antimicrobial activity against Streptococcus pyogenes MTCC 442 assessed as diameter of growth inhibition zone at 50 ug/ml after 18-24 hr by agar cup diffusion method; details: read-out: DIZ
Streptococcus pyogenes [19] = assay: Antimicrobial activity against Streptococcus pyogenes MTCC 442 by agar cup diffusion method
Pseudomonas aeruginosa [20] = assay: Antimicrobial activity against Pseudomonas aeruginosa MTCC 1688 assessed as diameter of growth inhibition zone at 250 ug/ml after 18-24 hr by agar cup diffusion method; details: read-out: DIZ
Escherichia coli [21] = assay: Antimicrobial activity against Escherichia coli MTCC 443 assessed as diameter of growth inhibition zone at 50 ug/ml after 18-24 hr by agar cup diffusion method; details: read-out: DIZ
Escherichia coli [22] = assay: Antimicrobial activity against Escherichia coli MTCC 443 assessed as diameter of growth inhibition zone at 100 ug/ml after 18-24 hr by agar cup diffusion method; details: read-out: DIZ
Klebsiella pneumoniae [23] = assay: Antimicrobial activity against Klebsiella pneumoniae MTCC 109 assessed as diameter of growth inhibition zone at 25 ug/ml after 18-24 hr by agar cup diffusion method; details: read-out: DIZ
Pseudomonas aeruginosa [24] = assay: Antimicrobial activity against Pseudomonas aeruginosa MTCC 1688 assessed as diameter of growth inhibition zone at 50 ug/ml after 18-24 hr by agar cup diffusion method; details: read-out: DIZ
Staphylococcus aureus [25] = assay: Antimicrobial activity against Staphylococcus aureus MTCC 96 assessed as diameter of growth inhibition zone at 100 ug/ml after 18-24 hr by agar cup diffusion method; details: read-out: DIZ
Penicillium [26] = assay: Antimicrobial activity against Penicillium wild strain assessed as diameter of growth inhibition zone at 50 ug/ml after 48-96 hr by agar cup diffusion method; details: read-out: DIZ
Staphylococcus aureus [27] = assay: Antimicrobial activity against Staphylococcus aureus MTCC 96 assessed as diameter of growth inhibition zone at 50 ug/ml after 18-24 hr by agar cup diffusion method; details: read-out: DIZ
Staphylococcus aureus [28] = assay: Antimicrobial activity against Staphylococcus aureus MTCC 96 by agar cup diffusion method
Candida albicans [29] = assay: Antimicrobial activity against Candida albicans MTCC 227 assessed as diameter of growth inhibition zone at 25 ug/ml after 48-96 hr by agar cup diffusion method; details: read-out: DIZ
Escherichia coli [30] = assay: Antimicrobial activity against Escherichia coli MTCC 443 assessed as diameter of growth inhibition zone at 25 ug/ml after 18-24 hr by agar cup diffusion method; details: read-out: DIZ
Candida albicans [31] = assay: Antimicrobial activity against Candida albicans MTCC 227 assessed as diameter of growth inhibition zone at 250 ug/ml after 48-96 hr by agar cup diffusion method; details: read-out: DIZ
Trichophyton rubrum [32] = assay: Antimicrobial activity against Trichophyton rubrum MTCC 296 assessed as diameter of growth inhibition zone at 100 ug/ml after 48-96 hr by agar cup diffusion method; details: read-out: DIZ
Trichophyton rubrum [33] = assay: Antimicrobial activity against Trichophyton rubrum MTCC 296 assessed as diameter of growth inhibition zone at 50 ug/ml after 48-96 hr by agar cup diffusion method; details: read-out: DIZ
Klebsiella pneumoniae [34] = assay: Antimicrobial activity against Klebsiella pneumoniae MTCC 109 by agar cup diffusion method
Pseudomonas aeruginosa [35] = assay: Antimicrobial activity against Pseudomonas aeruginosa MTCC 1688 assessed as diameter of growth inhibition zone at 25 ug/ml after 18-24 hr by agar cup diffusion method; details: read-out: DIZ
Staphylococcus aureus [36] = assay: Antimicrobial activity against Staphylococcus aureus MTCC 96 assessed as diameter of growth inhibition zone at 25 ug/ml after 18-24 hr by agar cup diffusion method; details: read-out: DIZ
Aspergillus clavatus [37] = assay: Antimicrobial activity against Aspergillus clavatus MTCC 1323 assessed as diameter of growth inhibition zone at 250 ug/ml after 48-96 hr by agar cup diffusion method; details: read-out: DIZ
Streptococcus pyogenes [38] = assay: Antimicrobial activity against Streptococcus pyogenes MTCC 442 assessed as diameter of growth inhibition zone at 25 ug/ml after 18-24 hr by agar cup diffusion method; details: read-out: DIZ
Penicillium [39] = assay: Antimicrobial activity against Penicillium wild strain assessed as diameter of growth inhibition zone at 25 ug/ml after 48-96 hr by agar cup diffusion method; details: read-out: DIZ
Klebsiella pneumoniae [40] = assay: Antimicrobial activity against Klebsiella pneumoniae MTCC 109 assessed as diameter of growth inhibition zone at 50 ug/ml after 18-24 hr by agar cup diffusion method; details: read-out: DIZ
Trichophyton rubrum [41] = assay: Antimicrobial activity against Trichophyton rubrum MTCC 296 assessed as diameter of growth inhibition zone at 25 ug/ml after 48-96 hr by agar cup diffusion method; details: read-out: DIZ
Candida albicans [42] = assay: Antimicrobial activity against Candida albicans MTCC 227 by agar cup diffusion method
Escherichia coli [43] = assay: Antimicrobial activity against Escherichia coli MTCC 443 by agar cup diffusion method
Aspergillus clavatus [44] = assay: Antimicrobial activity against Aspergillus clavatus MTCC 1323 assessed as diameter of growth inhibition zone at 25 ug/ml after 48-96 hr by agar cup diffusion method; details: read-out: DIZ
Aspergillus clavatus [45] = assay: Antimicrobial activity against Aspergillus clavatus MTCC 1323 by agar cup diffusion method

O=C(/C=C/c1ccccc1)C1C(=O)NC(=S)NC1=O
zone of inhibition at 100 µg/mL (Pseudomonas aeruginosa [1]): 15 mm
zone of inhibition at 250 µg/mL (Escherichia coli [2]): 17 mm
zone of inhibition at 250 µg/mL (Klebsiella pneumoniae [3]): 17 mm
zone of inhibition at 50 µg/mL (Aspergillus clavatus [4]): 19 mm
zone of inhibition at 100 µg/mL (Candida albicans [5]): 22 mm
zone of inhibition at 100 µg/mL (Streptococcus pyogenes [6]): 15 mm
zone of inhibition at 250 µg/mL (Streptococcus pyogenes [7]): 17 mm
zone of inhibition at 250 µg/mL (Staphylococcus aureus [8]): 17 mm
zone of inhibition at 100 µg/mL (Penicillium [9]): 22 mm
zone of inhibition at 250 µg/mL (Trichophyton rubrum [10]): 25 mm
zone of inhibition at 250 µg/mL (Penicillium [11]): 24 mm
MFC (Trichophyton rubrum [12]): 1000 µg/mL (≈ 3650 µM)
MIC (Trichophyton rubrum [12]): 1000 µg/mL (≈ 3650 µM)
zone of inhibition at 100 µg/mL (Klebsiella pneumoniae [13]): 14 mm
zone of inhibition at 50 µg/mL (Candida albicans [14]): 18 mm
MFC (Penicillium [15]): > 1000 µg/mL
MIC (Penicillium [15]): 1000 µg/mL (≈ 3650 µM)
zone of inhibition at 100 µg/mL (Aspergillus clavatus [16]): 21 mm
MBC (Pseudomonas aeruginosa [17]): 250 µg/mL (≈ 911 µM)
MIC (Pseudomonas aeruginosa [17]): 250 µg/mL (≈ 911 µM)
zone of inhibition at 50 µg/mL (Streptococcus pyogenes [18]): 15 mm
MBC (Streptococcus pyogenes [19]): 500 µg/mL (≈ 1820 µM)
MIC (Streptococcus pyogenes [19]): 250 µg/mL (≈ 911 µM)
zone of inhibition at 250 µg/mL (Pseudomonas aeruginosa [20]): 17 mm
zone of inhibition at 50 µg/mL (Escherichia coli [21]): 15 mm
zone of inhibition at 100 µg/mL (Escherichia coli [22]): 15 mm
zone of inhibition at 25 µg/mL (Klebsiella pneumoniae [23]): 10 mm
zone of inhibition at 50 µg/mL (Pseudomonas aeruginosa [24]): 13 mm
zone of inhibition at 100 µg/mL (Staphylococcus aureus [25]): 15 mm
zone of inhibition at 50 µg/mL (Penicillium [26]): 21 mm
zone of inhibition at 50 µg/mL (Staphylococcus aureus [27]): 13 mm
MBC (Staphylococcus aureus [28]): 250 µg/mL (≈ 911 µM)
MIC (Staphylococcus aureus [28]): 250 µg/mL (≈ 911 µM)
zone of inhibition at 25 µg/mL (Candida albicans [29]): 16 mm
zone of inhibition at 25 µg/mL (Escherichia coli [30]): 12 mm
zone of inhibition at 250 µg/mL (Candida albicans [31]): 22 mm
zone of inhibition at 100 µg/mL (Trichophyton rubrum [32]): 24 mm
zone of inhibition at 50 µg/mL (Trichophyton rubrum [33]): 24 mm
MBC (Klebsiella pneumoniae [34]): 250 µg/mL (≈ 911 µM)
MIC (Klebsiella pneumoniae [34]): 200 µg/mL (≈ 729 µM)
zone of inhibition at 25 µg/mL (Pseudomonas aeruginosa [35]): 10 mm
zone of inhibition at 25 µg/mL (Staphylococcus aureus [36]): 10 mm
zone of inhibition at 250 µg/mL (Aspergillus clavatus [37]): 24 mm
zone of inhibition at 25 µg/mL (Streptococcus pyogenes [38]): 12 mm
zone of inhibition at 25 µg/mL (Penicillium [39]): 19 mm
zone of inhibition at 50 µg/mL (Klebsiella pneumoniae [40]): 12 mm
zone of inhibition at 25 µg/mL (Trichophyton rubrum [41]): 20 mm
MFC (Candida albicans [42]): 1000 µg/mL (≈ 3650 µM)
MIC (Candida albicans [42]): 500 µg/mL (≈ 1820 µM)
MBC (Escherichia coli [43]): 500 µg/mL (≈ 1820 µM)
MIC (Escherichia coli [43]): 250 µg/mL (≈ 911 µM)
zone of inhibition at 25 µg/mL (Aspergillus clavatus [44]): 18 mm
MFC (Aspergillus clavatus [45]): 1000 µg/mL (≈ 3650 µM)
MIC (Aspergillus clavatus [45]): 1000 µg/mL (≈ 3650 µM)
